From paper PMC12028158, “Synthesis and In Vitro Evaluation of the Anticancer Effect of Novel Phosphonium Vindoline Derivatives” (International Journal of Molecular Sciences, 2025)
“Also recorded” adds a separate entry of the source. Like-named read-outs stand apart in the source and are kept apart here.

Experiments:
SiHa = assay: MTT antiproliferative assay; assay type: cell-based, human; conditions: SiHa, 72 h; for inhibition at 10 µM / inhibition at 30 µM: Homo sapiens
Protocol: (§1) The antiproliferative properties of the tested compounds were additionally determined using the MTT assay against a panel of human adherent cancer cell lines isolated from breast (MCF-7 and MDA-MB-231), cervical (HeLa and SiHa), and ovarian (A2780) tumors and also on the NIH/3T3 fibroblast cell line (Table 3). IC50 values were calculated from a wider concentration range (0.1–30 μM) when higher than 50% cell growth inhibition was obtained at 10 μM (Table 4). Cisplatin was used as a reference compound. […] The noncancerous fibroblast cell line NIH/3T3 was used to gather preliminary data regarding the cancer selectivity of vindolin derivatives. […] The tumor selectivity of compound 9g, expressed as the ratio of IC50 on cancer cells and fibroblasts, is substantially higher than that of cisplatin (Table 4).
(§2) The antiproliferative effects of the prepared derivatives were evaluated in vitro using the MTT assay against a panel of human adherent cancer cell lines, including breast (MDA-MB-231, MCF-7), cervical (SiHa, HeLa), and ovarian (A2780) cancer cells. The noncancerous fibroblast cell line NIH/3T3 was included to obtain data concerning the tumor selectivity of the test substances. All cell lines were sourced from the European Collection of Cell Cultures (Salisbury, UK), except for SiHa (American Tissue Culture Collection (Manassas, VA, USA). All cell lines were maintained in Eagle’s Minimal Essential Medium (EMEM) supplemented with 10% fetal bovine serum (FBS), 1% non-essential amino acids, and a mixture of penicillin, streptomycin, and amphotericin B. The cells were maintained in a humidified atmosphere containing 5% CO2 at 37 °C. The media and the cell culture supplements were procured from Capricorn Scientific Ltd. (Ebsdorfergrund, Germany). Cells were seeded into 96-well microplates at 5000/well and, the next day, treated with vindoline derivatives at two concentrations (10 or 30 μM) for 72 h under cell culturing conditions. […] When higher than 50% cell growth inhibition was observed, the assay was repeated using a wide concentration range (0.1–30 μM). The IC50 values were calculated using GraphPad Prism software 10.3.1 (GraphPad Software, San Diego, CA, USA). Two independent experiments were performed with at least five replicates per condition.

[1] = tested on: 60 human tumor cell lines (NCI60); set-up: method as in PMID 39063170; conditions: previous work; cited from earlier work
[2] = tested on: panel of human adherent cancer cell lines; assay: MTT antiproliferative assay, whole cancer panel; assay type: cell-based; conditions: for anticancer activity / cytotoxic effect (in words): MTT panel
Protocol: as §1, §2

MCF-7 = assay: MTT antiproliferative assay; assay type: cell-based, human; conditions: Homo sapiens, MCF7, 72 h; for inhibition at 30 µM: MCF-7, 30 μM, read-out: Growth Inhibition (%) ± SEM (converted)
Protocol: as §1, §2

HeLa = assay: MTT antiproliferative assay; assay type: cell-based, human; conditions: Homo sapiens, HeLa, 72 h; for inhibition at 10 µM: read-out: Growth Inhibition (%) ± SEM; for inhibition at 30 µM: read-out: Growth Inhibition (%) ± SEM (converted)
Protocol: as §1, §2

A2780 = assay: MTT antiproliferative assay; assay type: cell-based, human; conditions: Homo sapiens, 72 h, 72 h; for inhibition at 10 µM: A2780, 10 μM; for inhibition at 30 µM: A2780, 30 μM, read-out: Growth Inhibition (%) ± SEM (converted)
Protocol: as §1, §2

MDA-MB-231 = assay: MTT antiproliferative assay; assay type: cell-based, human; conditions: Homo sapiens, 72 h, 72 h; for inhibition at 10 µM: MDA-MB-231, 10 μM; for inhibition at 30 µM: MDA-MB-231, 30 μM
Protocol: as §1, §2

NIH/3T3 (fibroblast) = assay: MTT antiproliferative assay; assay type: cell-based; conditions: Mus musculus, 72 h; for inhibition at 10 µM: NIH3T3, 10 μM, read-out: Growth Inhibition (%) ± SEM; for inhibition at 30 µM: NIH3T3, 30 μM, read-out: Growth Inhibition (%) ± SEM (converted)
Protocol: as §1, §2

[3] = heading: Growth Inhibition ± SEM
[4] = read-out: Growth Inhibition (%) ± SEM
[5] = read-out: Growth Inhibition (%) ± SEM (converted)

N.N.[Cl][Pt][Cl] [Cisplatin, reference compound] showed an IC50 (SiHa; MTT, read-out: IC50 Value (μM) ± SEM) of 15.5 ± 0.93 µM.
In the case of CCC12C=CCN3CCC4(c5ccc(OC)cc5N(C)C4C(O)(C(=O)OC)C1O)C32 (centres unmarked) [compound 6, 17-desacetylvindoline], the “antiproliferative effects (in words)” value [1] is given as “do not exert antiproliferative effects”.
In the case of CCC12C=CCN3CCC4(c5ccc(OC)cc5N(C)C4C(O)(C(=O)OC)C1OC(=O)CCCBr)C32 (centres unmarked) [compound 7, 17-(O-4-bromobutanoyl)vindoline], the “antiproliferative effects (in words)” value [1] is listed as “do not exert antiproliferative effects”.
With CC[C@]12C=CCN3CC[C@@]4(c5ccc(OC)cc5N(C)[C@H]4[C@@](O)(C(=O)OC)[C@@H]1OC(=O)CC(c1ccccc1)(c1ccccc1)c1ccccc1)[C@@H]32 [compound 13, 17-(O-3,3,3-Triphenylpropanoyl)vindoline] the “anticancer activity / cytotoxic effect (in words)” value [2] was “no cytotoxic effect”, the “antiproliferative effect (in words)” value ([2]; even at 30 μM) was “modest or negligible effect” and the inhibition at 30 µM (MCF-7) was 20.8%. The inhibition at 10 µM (HeLa) was 39.9 ± 2.57%, the inhibition at 30 µM (HeLa) was 40.1% and the inhibition at 10 µM (A2780; [3]) was < 10%. The inhibition at 30 µM (A2780) was 11.9%, the inhibition at 10 µM (MDA-MB-231; [3]) was < 10% and the inhibition at 30 µM (MDA-MB-231; [3]) was < 10%. The inhibition at 10 µM (SiHa; [3]) was < 10%, the inhibition at 30 µM (SiHa; [3]) was < 10% and the inhibition at 10 µM (NIH/3T3 (fibroblast)) was 26.1 ± 1.55%. For the same compound, the inhibition at 30 µM (NIH/3T3 (fibroblast)) was 22.1%.
In the case of CC[C@]12C=CCN3CC[C@@]4(c5cc(NC(=O)C[P+](c6ccccc6)(c6ccccc6)c6ccccc6)c(OC)cc5N(C)[C@H]4[C@@](O)(C(=O)OC)[C@@H]1OC(C)=O)[C@@H]32 [compound 16], the “anticancer activity / cytotoxic effect (in words)” value [2] is reported as “no cytotoxic effect; also recorded: no remarkable anticancer activity”, the inhibition at 10 µM (MCF-7; MCF-7, 10 μM, read-out: Growth Inhibition (%) ± SEM) is reported as 31.1 ± 3.1% and the inhibition at 30 µM (MCF-7) is reported as 47.1%. The inhibition at 10 µM (HeLa) was 21.7 ± 0.84%, the inhibition at 30 µM (HeLa) was 30% and the inhibition at 10 µM (A2780; [4]) was 19.4 ± 0.64%. For the same compound, the inhibition at 30 µM (A2780) was 29.5%, the inhibition at 10 µM (MDA-MB-231; [4]) was 12.64 ± 0.03% and the inhibition at 30 µM (MDA-MB-231; [5]) was 13.5%. The inhibition at 10 µM (SiHa; [4]) was 15 ± 0.34%, the inhibition at 30 µM (SiHa; [5]) was 36.8% and the inhibition at 10 µM (NIH/3T3 (fibroblast)) was 24.9 ± 0.78%. For the same compound, the inhibition at 30 µM (NIH/3T3 (fibroblast)) was 27.5%.
